# From ChEMBL document CHEMBL6109174, “The Prosperity and Adversity of M4 Muscarinic Acetylcholine Receptor Activators in the Treatment of Neuropsychiatric Disorders” (J Med Chem, 2025)
# Target: T1, Muscarinic acetylcholine receptor M4 (Homo sapiens, UniProt P08173)
# T1 sequence (P08173 whole entry): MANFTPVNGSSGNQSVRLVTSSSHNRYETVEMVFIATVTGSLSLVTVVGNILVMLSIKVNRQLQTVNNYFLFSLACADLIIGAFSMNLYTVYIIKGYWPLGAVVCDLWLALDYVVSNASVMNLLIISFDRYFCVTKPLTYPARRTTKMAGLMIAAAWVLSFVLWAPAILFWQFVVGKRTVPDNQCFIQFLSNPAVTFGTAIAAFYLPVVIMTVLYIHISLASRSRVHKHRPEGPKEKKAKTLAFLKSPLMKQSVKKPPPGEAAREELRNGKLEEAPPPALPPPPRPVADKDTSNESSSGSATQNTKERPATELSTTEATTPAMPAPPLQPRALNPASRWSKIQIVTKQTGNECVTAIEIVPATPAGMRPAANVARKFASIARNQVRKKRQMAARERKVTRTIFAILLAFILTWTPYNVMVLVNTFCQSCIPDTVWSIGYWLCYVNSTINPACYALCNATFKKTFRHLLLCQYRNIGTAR
# Experiment: Agonist activity at human recombinant M4 muscarinic acetylcholine receptor assessed as calcium mobilization by FLIPR analysis
# Assay type: functional
row,Compound,EC50 [nM]
1,Cc1cc(C)c2c(N)c(C(=O)NCc3ccccc3)sc2n1,1.3
2,Cc1cc(C)c2c(N)c(C(=O)NCc3ccco3)sc2n1,395
3,Cc1cc(C)c2c(N)c(C(=O)NCc3ccc(Cl)cc3)sc2n1,400
4,Cc1nc2sc(C(=O)NCc3ccncc3)c(N)c2c(C)c1Cl,77
5,Cc1cc(C)c2c(N)c(C(=O)NCc3ccc4c(c3)OCO4)sc2n1,403
6,Cc1nnc2sc(C(=O)NCc3ccc(-c4ccnc(F)c4)cc3)c(N)c2c1C,91

# Target: T1, Muscarinic acetylcholine receptor M4
# Experiment: Agonist activity at human M4 receptor
# Assay type: functional
row,Compound,EC50 [nM]
1,COc1nc2sc(C(=O)NC3CC3)c(N)c2c(C)c1Cl,39
2,CCNC(=O)c1sc2nc(OC)c(Cl)c(C)c2c1N,200

# Target: T2, Muscarinic acetylcholine receptor M2 (Homo sapiens, UniProt P08172)
# T2 sequence (P08172 whole entry): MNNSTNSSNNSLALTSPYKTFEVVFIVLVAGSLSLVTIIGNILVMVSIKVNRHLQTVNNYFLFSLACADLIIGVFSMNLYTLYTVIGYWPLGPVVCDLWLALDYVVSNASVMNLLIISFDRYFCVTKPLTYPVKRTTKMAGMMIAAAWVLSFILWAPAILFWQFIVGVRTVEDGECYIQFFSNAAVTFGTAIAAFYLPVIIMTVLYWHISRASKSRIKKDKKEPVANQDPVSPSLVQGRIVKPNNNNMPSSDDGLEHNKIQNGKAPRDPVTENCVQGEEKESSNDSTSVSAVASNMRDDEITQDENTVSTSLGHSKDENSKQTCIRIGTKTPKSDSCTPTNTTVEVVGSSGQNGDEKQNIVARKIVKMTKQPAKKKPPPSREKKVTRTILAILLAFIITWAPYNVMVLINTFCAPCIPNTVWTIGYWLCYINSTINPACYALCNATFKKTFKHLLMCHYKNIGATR
# Experiment: Agonist activity at human M2 receptor
# Assay type: functional
row,Compound,EC50 [nM]
1,COC(=O)N1CCC(N2CCC(n3c(=O)n(C)c4ccccc43)CC2)CC1,135
